Data reported in US6586460B1, “Heteroarotinoids containing urea or thiourea linker” (The Board of Regents for Oklahoma State University, priority 2001, dated 2003).
“And” between values parts separate entries of the source, which are not always exact repeats. Equal entries are not always repeated.

Key:
[1] = tested on: SK-OV-3; assay: Growth inhibition assay (SRB); format: cell-based; conditions: 3 days of treatment; for inhibition at 1 µM / inhibition at 10 µM: Homo sapiens, SK-OV-3, 72 h, read-out: Percentage of growth inhibition, SKOV−3
Excerpt: (§1) To illustrate the general and useful biological activity of the heteroarotinoids described in this invention, selected compounds were screened for ability to inhibit the growth of three ovarian cancerous cell lines, namely Caov, SKOV, and OVCAR cell lines, three cervical cell lines (Cervix HPV-Wt p53, Cervix HPV-Mut p53, and Cervix HPV-Mut p53), and one vulvar (Vulvar HPV-Mut p53) cell line as shown in Tables I-III. The cell lines and the technology have been previously described [See Journal of Medicinal Chemistry, 1999, Vol. 42, pages 3602-3614 in an article entitled “Synthesis, Structure-Activity Relationships, and RAR γ-Ligand Interactions of Nitrogen Heteroarotinoids” by A. Dhar, S. Liu, J. Klucik, K. D. Berlin, M. M. Madler, S. Lu, R. T. Ivey, D. Zacheis, C. W. Brown, E. C. Nelson, P. J. Birckbichler, and D. M. Benbrook], but the general technique was slightly modified. Cultures of the cancerous cells were plated in volumes of 150 μL in 96-well microtiter plates at concentrations of 2000-4000 cells/well, depending upon the cell line used. Retinoids were added the next day at 4× the concentrations in 50 μL of media resulting in 1, 2, 3, 4, 5, 7, and 10 μM final concentrations of each retinoid. Control cultures were treated with the same volume of DMSO. After 3 days of treatment, the cell density in each well was determined by fixing the cells in trichloroacetic acid followed by staining the cytoplasmic proteins with sulforhoamine B (SRB). After rinsing, the SRB was solubilized in Tris-HCl, and the optical density of each culture was determined with a MR600 microtiter plate reader. Each experiment was performed in triplicate, and the three values of each treatment were averaged. The average OD of the treated cultures was divided by that of the control cultures treated with solvent alone. To determine the percent growth inhibition, this ratio was subtracted from 1 and multiplied by 100. Tables I, II, and III contain representative examples of the inhibition of growth by the inventive heteroarotinoids of the cancerous cell lines investigated at two independent concentrations (1 and 10 μM). As standards for comparison purposes, trans-retinoic acid (t-RA), 9-cis-retinoic acid (9-c-RA), 13-cis-retinoic acid (13-c-RA), and […] (4-HPR) were added in parallel experiments along with the heteroarotinoids and with dimethyl sulfoxide (DMSO) as the solvent. For convenience, the data in Tables II and III are duplicated and ranked according to tumor type.

[2] = tested on: CAOV-3; assay: Growth inhibition assay (SRB); format: cell-based; conditions: 3 days of treatment; for inhibition at 1 µM / inhibition at 10 µM: Homo sapiens, Caov-3, 72 h, read-out: Percentage of growth inhibition, CAOV−3
Excerpt: as §1

[3] = tested on: OVCAR-3; assay: Growth inhibition assay (SRB); format: cell-based, human; conditions: for Percentage of growth inhibition, OVCAR−3 / inhibition at 1 µM / inhibition at 10 µM: 3 days of treatment; for inhibition at 1 µM / inhibition at 10 µM: Homo sapiens, OVCAR-3, 72 h, read-out: Percentage of growth inhibition, OVCAR−3
Excerpt: as §1

[4] = tested on: SW962 vulvar carcinoma cultures; assay: Apoptosis assay, Annexin-V-Flous/propidium iodide flow cytometry; format: cell-based
Excerpt: Optimal chemotherapeutic agents will selectively kill tumor cells by inducing a natural form of cell death which is called “apoptosis”. Toxic agents kill both normal and tumor cells via a nonspecific process known as “necrosis”. To differentiate between apoptosis and necrosis in heteroarotinoid-treated cultures, a flow cytometric assay was employed. Treated cultures were stained with Annexin-V-Flous and propidium iodide, and the intensities of the stains are quantitated with Flow Cytometry. The Annexin-V-Flous binds to phosphatidyl serine on the exterior of apoptosing cells. This assay is specific for apoptosing cells because phosphatidyl serine is normally located on the inner membrane of the cells, a situation whereby the serine derivative cannot be bound by Annexin. However, during apoptosis, phosphatidyl serine is translocated to the outer membrane. The Flous moiety emits a signal that can be detected and quantitated by Flow Cytometry. In contrast, propidium iodide is taken up by necrotic cells that have lost membrane integrity. In this study, t-RA was used as a control for the non-apoptotic retinoids, and 4-HPR was used as a control for the apoptotic retinoids.

Row | Compound | Percentage of growth inhibition, SKOV−3 ([1]; 1 μM, Table II) [%] | Percentage of growth inhibition, SKOV−3 ([1]; 10 μM, Table III) [%] | Percentage of growth inhibition, CAOV−3 ([2]; 1 μM, Table II) [%] | Percentage of growth inhibition, CAOV−3 ([2]; 10 μM, Table III) [%] | Percentage of growth inhibition, OVCAR−3 ([3]; 1 μM, Table II) [%] | Percentage of growth inhibition, OVCAR−3 ([3]; 10 μM, Table III) | other results
1 | COc1ccc2c(c1NC(=S)Nc1ccc([N+](=O)[O-])cc1)C(C)(C)COC2(C)C [heteroarotinoid 41] | −2.72 | 45.45 | 7.58 | 61.94 | 7.18 | 81.71% | –
2 | trans-retinoic acid [t-RA, reference compound] | 8.8 | 6.0 | – | – | 6.0 | −3.0% and 3.0% | Percentage of induction of apoptosis in SW962 vulvar carcinoma cultures ([4]; Days 0): 3%; Percentage of induction of apoptosis in SW962 vulvar carcinoma cultures ([4]; Days 1): 2.53%; Percentage of induction of apoptosis in SW962 vulvar carcinoma cultures ([4]; Days 3): 1.25%; Percentage of induction of apoptosis in SW962 vulvar carcinoma cultures ([4]; Days 4): 4.5%; Percentage of induction of apoptosis in SW962 vulvar carcinoma cultures ([4]; Days 7): 3.51%
3 | CCCCOC(=O)c1ccc(NC(=O)Nc2cc3c(cc2OC)C(C)(C)COC3(C)C)cc1 [heteroarotinoid 34] | 22.2 | 6.0 | – | – | 2.2 | 30.5% | –
4 | CC1(C)CC(C)(C)c2cc(NC(=O)Nc3ccc(C(=O)O)cc3)ccc2S1 [heteroarotinoid 14] | 3.58 | 0.43 | −4.00 | 6.12 | −6.70 | 5.45% | –
5 | 13-cis-retinoic acid [13-c-RA, reference compound] | 28.5 | – | – | – | 9.8 | – | –
6 | Cc1cc2c(cc1NC(=S)Nc1ccc(C(=O)O)cc1)C(C)(C)CC(C)(C)S2 [heteroarotinoid 18] | 10.5 | 8.5 | – | – | 10.1 | 18.7% | –
7 | CC(=O)c1cc(NC(=S)Nc2ccc([N+](=O)[O-])cc2)c2c(c1)C(C)(C)CCO2 [heteroarotinoid 46] | −1.53 | 0.25 | 3.85 | −5.35 | 8.57 | 43.15% | –
8 | Cc1cc([N+](=O)[O-])ccc1NC(=S)Nc1cc2c(cc1C)SC(C)(C)CC2(C)C [heteroarotinoid 19] | 16.3 | 33.3 | – | – | 9.6 | 33.2% | –
9 | CC1(C)CC(C)(C)c2cccc(NC(=S)Nc3ccc([N+](=O)[O-])cc3)c2S1 [heteroarotinoid 22, [(4-Nitrophenyl)amino][(2,2,4,4-tetramethyl{3H-benzo[3,4-e]thiany-8-yl})amino]methane-1-thione] | 1.09 | – | −9.97 | – | 4.07 | 40.13% and 40.14% | –
10 | COc1cc2c(cc1NC(=S)Nc1ccc([N+](=O)[O-])cc1C)C(C)(C)OCC2(C)C [heteroarotinoid 35] | 10.3 | −14.3 | – | – | 5.6 | 6.1% | –
11 | Cc1cc2c(cc1NC(=S)Nc1ccc([N+](=O)[O-])cc1)C(C)(C)CC(C)(C)S2 [heteroarotinoid 17] | 3.0 | 65.3 | – | – | 6.6 | 64.9% | –
12 | Cc1cc2c(cc1NC(=S)Nc1ccc(S(N)(=O)=O)cc1)C(C)(C)CC(C)(C)S2 [heteroarotinoid 20] | 14.7 | 12.1 | – | – | 10.3 | 47.1% | –
13 | CCOC(=O)c1ccc(NC(=O)Nc2cc3c(cc2OC)C(C)(C)COC3(C)C)cc1 [heteroarotinoid 33] | 1.65 | 15.60 | 3.79 | 40.04 | 8.81 | 52.61% | –
14 | CCOC(=O)c1ccc(NC(=S)Nc2cccc3c2SC(C)(C)CC3(C)C)cc1 [heteroarotinoid 23] | −0.79 | 7.67 | 11.36 | 17.77 | −0.19 | 2.75% | –
15 | CCCCOC(=O)c1ccc(NC(=O)Nc2c(OC)ccc3c2C(C)(C)COC3(C)C)cc1 [heteroarotinoid 40] | 1.82 | 9.27 | 15.24 | 37.84 | 15.47 | 33.74% | inhibition of growth of the OVCAR cell line exceeding that of 4-HPR ([3]; 1 μM, Table II): more than 1200%; inhibition of growth of the OVCAR cell line exceeding that of 9-c-RA ([3]; 1 μM, Table II): about 120%; inhibition of growth of the OVCAR cell line exceeding that of 13-c-RA ([3]; 1 μM, Table II): about 40%; inhibition of growth of the OVCAR cell line exceeding that of t-RA ([3]; 1 μM, Table II): about 120%
16 | CCOC(=O)c1ccc(NC(=O)Nc2cc(C(C)=O)cc3c2OCCC3(C)C)cc1 [heteroarotinoid 45, Ethyl 4-{[N-(6-Acetyl-4,4-dimethylchroman-8-yl)carbamoyl]amino}benzoate] | – | – | – | – | – | – | inhibition at 1 µM ([1]; 1 μM, Table II): -4.18%; inhibition at 10 µM ([1]; 10 μM, Table III): 20%; inhibition at 1 µM ([2]; 1 μM, Table II): 7.18%; inhibition at 10 µM ([2]; 10 μM, Table III): 42.8%; inhibition at 1 µM ([3]; 1 μM, Table II): 9.2%; inhibition at 10 µM ([3]; 10 μM, Table III): 47.2%
17 | CC1(C)CC(C)(C)c2cc(NC(=S)Nc3ccc(S(N)(=O)=O)cc3)ccc2S1 [heteroarotinoid 15] | −1.86 | 9.83 | 19.85 | −9.56 | 8.91 | 40.90% | –
18 | CCOC(=O)c1ccc(NC(=O)Nc2c(OC)ccc3c2C(C)(C)COC3(C)C)cc1 [heteroarotinoid 38, Ethyl 4-{[N-(6-Methoxy-1,1,4,4-tetramethylisochroman-5-yl)carbamoyl]amino}benzoate] | – | – | – | – | – | – | inhibition at 1 µM ([1]; 1 μM, Table II): -2.39%; inhibition at 10 µM ([1]; 10 μM, Table III): -7.7%; inhibition at 1 µM ([2]; 1 μM, Table II): 8.79%; inhibition at 10 µM ([2]; 10 μM, Table III): -16.1%; inhibition at 1 µM ([3]; 1 μM, Table II): 9.48%; inhibition at 10 µM ([3]; 10 μM, Table III): 8.96%
